Source: PMC4721142, “Randomized controlled studies on the efficacy of antiarthritic agents in inhibiting cartilage degeneration and pain associated with progression of osteoarthritis in the rat” (Arthritis Research & Therapy, 2016)
Where “and” joins values, the source holds several entries; their conditions need not be identical. Equal entries are not always repeated.

How the values were obtained:
MMP-13 = MMP-13 ELISA on supernatants of TNF-α-treated chondrogenic pellets; type: cell-based, human
MMT/MCLT rat model of OA [1] = assay: MMT/MCLT trial 1 weight bearing (daily morphine 10 mg/kg, tacrolimus 0.3 or 0.6 mg/kg, fluocinolone 5 or 10 μg/kg, clonidine 100 μg/kg, alendronate 10 μg/kg i.p.; curcumin, withaferin 50 mg/kg p.o.); type: in vivo; conditions: low or only dose
Experimental: Weight bearing (WB; incapacitance) was measured five times per day, once per week, using a Linton incapacitance meter (Stoelting Co., Wood Dale, IL, USA). Rats were acclimated to the meter before study initiation, and, similarly, immediately before WB, the animals were placed in the meter and allowed to acclimate for 2–5 minutes. Each hind paw was placed on a separate force plate so that the force exerted by each side could be averaged over a 5-second interval, and the mean of three readings was taken for each data point. Right paw force was compared with that on the left side for each group to confirm that animals were displaying incapacitance and/or pain behavior. Differences in force (left minus right) and right paw force as a percentage of the total force exerted by both paws were determined and compared between groups.
Following isoflurane anesthesia, the medial collateral ligament was transected just below its attachment to the meniscus in the right knee. The meniscus was cut at its narrowest point away from the ossicles so as not to damage the tibial surface and to ensure that the anterior and posterior meniscus halves were freely movable. […] In trial 2, drugs were administered IA weekly beginning 1 week following surgery. Three weeks postsurgery, animals were humanely killed and their right knees were collected for histopathology. All studies were conducted in accordance with the International Association for the Study of Pain Guidelines and were approved by the Bolder BioPATH IACUC (Boulder, CO, USA) in compliance with regulations before study initiation (IACUC protocol BBP03-006). Those running the studies were blinded to the treatments. See Additional file 1 for further details.
Isoflurane and the right knee area prepared for surgery. A skin incision was made over the medial aspect of the knee and the medial collateral ligament was exposed by blunt dissection and then transected. The medial meniscus was cut through the full thickness to simulate a complete tear and the skin was then closed with suture.
All pharmaceutical agents were prepared and stored as recommended by the supplier. Daily drug preparations were made fresh from stock solutions. […]
In Trial 2 drugs were […]
administered IA weekly beginning one week following surgery. […]
were delivered by gavage and were prepared in 0.3% Methyl Cellulose.
WB was measured five times a day, once a week, using a Linton incapacitance meter (Stoelting Co.) to assess pain behavior. Rats were acclimated to the incapacitance meter prior to study initiation.
Similarly, immediately prior to WB animals were placed in the incapacitance meter and allowed to acclimate for 2-5 minutes. Each hind paw was placed on a separate force plate so that the force exerted by each side could be averaged over a 5 second interval and the mean of three readings taken for each data point. Right paw force was compared to left for each group to confirm that animals were displaying incapacitance / pain behavior. Difference in force (left minus right) and right paw force as a percentage of the total force exerted by both paws were determined and compared between groups. Three weeks after surgery, animals were humanely euthanized and right knees collected for histopathology evaluation.
Figure 2. MMT/MCLT Trial Timeline […]
MMT/MCLT Dosing (once/day)
The study design and animal usage was approved by Bolder BioPATH’s Institutional Animal Care and Use Committee (IACUC) for compliance with regulations prior to study initiation (IACUC […]
Labs. Animals were identified by a distinct mark at the base of the tail delineating group and animal number. After randomization, all cages were labeled with protocol number, group numbers, and animal numbers with appropriate color-coding (see protocol).

MMT/MCLT rat model of OA [2] = assay: MMT/MCLT trial 1 histopathology (same doses); type: in vivo; conditions: low or only dose
Source text: For MMT/MCLT rat knee joints, sections were cut in 200-μm steps; stained with toluidine blue (also with a right and left half per section); and similarly analyzed for cartilage degeneration, proteoglycan loss, collagen damage, and osteophyte formation. Results were averaged across the three sections for an overall semiquantitative score. Regional differences across the tibial plateau were taken into consideration by dividing each section into three zones delineated using an ocular micrometer (outside, middle, and inside). Scores were based on the percentage of area affected within the zone.
Cartilage degeneration in the tibia was scored on a 5-point scale as detailed in the Methods section of Additional file 1. The total extent of degeneration of the tibial plateau was measured (in micrometers) and included an analysis of cell loss, proteoglycan loss, and collagen damage. Significant cartilage degeneration reflecting any degeneration extending through more than 50 % of the cartilage thickness was also measured. Collagen damage across the medial tibial plateau (the most severely affected section of the two halves) was also quantified.
Osteophytes and femoral cartilage degeneration were analyzed as detailed in Additional file 1. Scoring of the osteophytes and categorization into small, medium, and large was performed using an ocular micrometer. The actual osteophyte measurement (tidemark to farthest distance point extending toward the synovium) was also recorded. The femoral cartilage degeneration score and the three-zone sum of the tibial cartilage degeneration scores (mean of three levels) were summed to create a total cartilage degeneration score. The mean osteophyte score for each joint was added to this value to create a total joint score. […]
Histopathology MMT/MCLT Model

## NCCCC(O)(P(=O)(O)O)P(=O)(O)O [Alendronate, Alendronate sodium]
MMP-13
  Effective range against MMP-13: Not effective
MMT/MCLT rat model of OA [1]; day 7
  Weight bearing, hours with significant effect: 5 h
MMT/MCLT rat model of OA [1]; day 14
  Weight bearing, hours with significant effect: 1 h
MMT/MCLT rat model of OA [2]; mean
  Bone score: 2.75
  Femoral cartilage degeneration score: 1.79 and 1.79 ± 0.60
  Tibial cartilage degeneration score, 3-zone total: 5.83
  Tibial cartilage degeneration score, zone 1: 3.79
  Tibial cartilage degeneration score, zone 2: 2.04
  Tibial cartilage degeneration score, zone 3: 0.00
  Tibial cartilage degeneration width, significant: 650.00 µm
  Tibial cartilage degeneration width, total: 1175.00 µm
  Tibial osteophyte measure: 479.17 µm
  Tibial osteophyte score: 3.63
  Total joint score: 11.25
  Total joint score w/o femur: 9.46
MMT/MCLT rat model of OA [2]; vs saline group
  % decrease, bone score: 15%
  % decrease, femoral cartilage degeneration score: 2%
  % decrease, osteophyte measure: 7%
  % decrease, osteophyte score: 7%
  % decrease, significant degeneration width: 11%
  % decrease, tibial score 3-zone total: 11%
  % decrease, tibial score zone 1: 12%
  % decrease, tibial score zone 2: 8%
  % decrease, tibial score zone 3: 100%
  % decrease, total degeneration width: 10%
  % decrease, total joint score: 8%
  % decrease, total joint score w/o femur: 10%
